Assay: Half life in mouse plasma
Format: ADME, cell-free

C[C@H](CC#CC(C)(C)O)[C@H]1CC[C@@H]2/C(=C/C=C3C[C@@H](O)C[C@H](O)C3)CCC[C@@]21C [INECALCITOL]
half-life: 18.3 min
